Like-named read-outs stand apart in the source and are kept apart here. Values belong to the compound of their own block, whether it stands above or below them.
Test system: PMA-differentiated THP-1 cells
Assay: IL-1β production in PMA-differentiated THP-1 cells stimulated with gramicidin (hTHP-1 assay containing 2% fetal bovine serum; Procedures 1 and 2)
Type: cell-based, human
Conditions: 2% fetal bovine serum
Summary of the method: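 PMA 20 ng/ml 16-18 h → trypsinise → 50,000 cells/well, RPMI/2% FBS; cpd 1 h (11-pt, 100–0.0017 μM; DMSO 0.37%); gramicidin 5 μM, 2 h; spin; supernatant IL-1β via HTRF.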

[1] = Homo sapiens, THP-1, Table B2, numeric bounds, read-out: hTHP-1 IC50
[2] = Table B2, class symbols, read-out: hTHP-1 IC50
[3] = Homo sapiens, THP-1, Table B2, class symbols, read-out: hTHP-1 IC50

SMILES: CC(C)(O)c1cccc(S(N)(=O)=NC(=O)Nc2c3c(nc4c2CCC4)CCC3)c1 (single isomer, unassigned) [Compound 625a, (S) or (R)-N′-((1,2,3,5,6,7-hexahydrodicyclopenta [b,e]pyridin-8-yl)carbamoyl)-3-(2-hydroxypropan-2-yl)benzene-sulfonimidamide]
IC50 [1]: > 30 µM

SMILES: CCc1cc(F)c(S(N)(=O)=NC(=O)Nc2c3c(nc4c2CC[C@H]4C)CCC3)s1 (single isomer, unassigned) [Compound 720b, (S) or (R)-5-Ethyl-3-fluoro-N′-(((R)-3-methyl-1,2,3,5,6,7-hexahydrodicyclopenta[b, e]pyridin-8-yl)carbamoyl)thiophene-2-sulfonimidamide]
IC50 [2]: 5 to 30 µM

SMILES: CC(C)n1cc(CO)c(S(N)(=O)=NC(=O)Nc2c3c(nc4c2CCC4(C)C)CCC3)n1 (centres unmarked) [Compound 682, N′-((3,3-dimethyl-1,2,3,5,6,7-hexahydrodicyclopenta [b,e]pyridin-8-yl)carbamoyl)-4-(hydroxymethyl)-1-isopropyl-1H-pyrazole-3-sulfonimidamide]
IC50 [3]: 1 to 5 µM

SMILES: Cc1c(C2CC2)nc2c(c1NC(=O)N=S(N)(=O)c1ccn(C(F)F)n1)CCC2 (single isomer, unassigned) [Compound 676a, (S) or (R)-N′-((2-cyclopropyl-3-methyl-6,7-dihydro-5H-cyclopenta[b]pyridin-4-yl)carbamoyl)-1-(difluoromethyl)-1H-pyrazole-3-sulfonimidamide]
IC50 [1]: > 30 µM

SMILES: CCn1ccc(S(N)(=O)=NC(=O)Nc2c(C)c(C(F)(F)F)nc3c2CCC3)n1 (single isomer, unassigned) [Example 692, (S) or (R)-1-Ethyl-N′-((3-methyl-2-(trifluoromethyl)-6,7-dihydro-5H-cyclopenta[b]pyridin-4-yl)carbamoyl)-1H-pyrazole-3-sulfonimidamide]
IC50 (Table B3, hTHP-1 assay, class symbols, read-out: IC50): 5 to 30 µM

SMILES: C[C@@H]1CCc2c1nc1c(c2NC(=O)N=S(N)(=O)c2ccn(-c3ccccc3)n2)CCC1 (some centres unmarked) [Compound 646a]
IC50 [3]: 1 to 5 µM

SMILES: CC(C)(O)c1cc(F)c(S(N)(=O)=NC(=O)Nc2cc(CC(F)(F)F)nc3c2CCC3)s1 (single isomer, unassigned) [Example 690, (S) or (R)-3-Fluoro-5-(2-hydroxypropan-2-yl)-N′-((2-(2,2,2-trifluoroethyl)-6,7-dihydro-5H-cyclopenta[b]pyridin-4-yl)carbamoyl)thiophene-2-sulfonimidamide]
IC50 (Homo sapiens, THP-1, Table B3, hTHP-1 assay, numeric values, read-out: IC50): > 30 µM

Further lines, results first:

IC50 (Table B1, class symbols, read-out: Average IC50 of compounds in hTHP-1 assay: hTHP-1 IC50): 0.2 to 1 µM
SMILES: CC1CCc2c1nc1c(c2NC(=O)N=S(N)(=O)c2sc(C(C)(C)O)nc2CO)CCC1 (single isomer, unassigned) [Compound 168b, (R,R/S) or (S,R/S)-4-(hydroxymethyl)-2-(2-hydroxypropan-2-yl)-N′-((3-methyl-1,2,3,5,6,7-hexa-hydrodicyclopenta[b,e]py-ridin-8-yl)carbamoyl)thia-zole-5-sulfonimidamide]

IC50 [3]: 0.04 to 0.2 µM
SMILES: Cc1c(C2CC2)nc2c(c1NC(=O)N=S(N)(=O)c1nc(C(C)(C)O)cs1)CCC2 (centres unmarked) [Compound 626, N′-((2-cyclopropyl-3-methyl-6,7-dihydro-5H-cyclopenta[b]pyridin-4-yl)carbamoyl)-4-(2-hydroxypropan-2-yl)thiazole-2-sulfonimidamide]

IC50 [3]: 1 to 5 µM
SMILES: Cc1nc2c(c(NC(=O)N=S(N)(=O)c3ncc(C(C)(C)O)s3)c1C1CC1)CCC2 (centres unmarked) [Compound 618, N′-((3-cyclopropyl-2-methyl-6,7-dihydro-5H-cyclopenta[b]pyridin-4-yl)carbamoyl)-5-(2-hydroxypropan-2-yl)thiazole-2-sulfonimidamide]

IC50 [2]: 1 to 5 µM
SMILES: CCc1c(C(F)(F)F)nc2c(c1NC(=O)N=S(N)(=O)c1cnc(C(C)(C)O)s1)CCC2 (single isomer, unassigned) [Compound 610a, (R) or (S)-N′-((3-ethyl-2-(trifluoromethyl)-6,7-dihydro-5H-cyclopenta[b]pyridin-4-yl)carbamoyl)-2-(2-hydroxypropan-2-yl)thiazole-5-sulfonimidamide]

From patent US20230031406A1, “COMPOUNDS AND COMPOSITIONS FOR TREATING CONDITIONS ASSOCIATED WITH NLRP ACTIVITY” (Novartis AG, priority 2018, published 2023)
